Marks after values point to notes of the source that are not given here.
Tests used:
S. typhi [1] = assay: Irradiation sensitivity of S. typhi in chicken breast; type: cell-based, Salmonella typhi (ATCC 19430)
E. coli [2] = assay: Irradiation sensitivity of E. coli in chicken breast; type: cell-based, Escherichia coli (ATCC 25922); conditions: trans-cinnamaldehyde 0.050%, thymol 0.038%, tetrasodium pyrophosphate 0.003%, carvacrol 0.029%
S. typhi [3] = assay: Irradiation sensitivity (D10) of S. typhi in ground beef; type: cell-based, Salmonella typhi (ATCC 19430)
E. coli [4] = assay: Irradiation sensitivity (D10) of E. coli in ground beef; type: cell-based, Escherichia coli (ATCC 25922)
E. coli [5] = assay: MIC (D10 %) of active compounds in ground beef, E. coli; type: cell-based, Escherichia coli (ATCC 25922); conditions: non-irradiated ground beef, 10^5 CFU/g, stored at 4° C. for 24 hours; % w/w or v/w
Description: (§1) Escherichia coli (ATCC 25922) and Salmonella typhi (ATCC 19430) were obtained from the American Type Culture Collection (Rockville, Md., USA) and maintained at −80° C. in Tryptic Soy Broth (TSB; Difco Laboratory, Detroit, Mich.) containing glycerol (10%; v/v). Before each experiment, stock cultures were subcultured through two consecutive 24 h growth cycles in TSB at 35° C. to obtain working cultures containing approximately 10^9 UCF/ml for E. coli and S. typhi.
(§2) Samples were homogenised for 2 min in sterile peptone water (0.1%) using a Lab-blender 400 stomacher (Laboratory Equipment, London, UK). From this mixture, serial dilutions were prepared and appropriate ones were pour-plated in tryptic soy agar (TSA) (Difco, Laboratories, Detroit, Mich., USA) and incubated at 35° C., 24 hours for the numeration of E. coli and S. typhi.
(§3) D10 deteriiination: The kinetics of bacteria destruction by irradiation with or without the active compounds and under different packaging conditions was evaluated by linear regression. Bacterial counts (log CFU/ml) were plotted against irradiation doses or compound concentrations and the D10 values were calculated using SigmaPlot program. Statistical analysis was done using SPSS program. The Duncan test was used with a probability of 0.05.
(§4) The MIC values for the active compounds were determined on the basis of their antibacterial effectiveness in meat. Concentrations retained were those to reduce by 1 log CFU the population of E. coli or S. typhi in ground beef. Ground beef samples weighing 200 g were contaminated with working cultures of E. coli or S. typhi to obtain a final concentration of 10^5 CFU/g. The ground beef samples containing micro-organisms was mixed during 3 minutes at medium speed in a 4L-conmmercial blender (Waring Products, New Hartford, Col., USA) and different concentrations of the active compounds were incorporated, followed by another 3 minutes period mixing. Sterile petri plates (60×15 mm) were filled with ground beef samples containing micro-organisms and different concentrations of active compounds in portion of 25 g each and stored at 4° C. for 24 hours.
(§5) In addition to the above compounds, minimal concentrations of different types of commercial Herbalox® and Duralox® required to reduce by 1 log the bacterial population of E. coli in ground beef were evaluated. […] However, an estimation of the minimal concentration was calculated using the slope of the curve.

S. typhi [6] = assay: MIC (D10 %) of active compounds in ground beef, S. typhi; type: cell-based, Salmonella typhi (ATCC 19430); conditions: non-irradiated ground beef, 10^5 CFU/g, stored at 4° C. for 24 hours; % w/w or v/w
Description: as §1, §2, §3, §4, §5

[7] = tested on: Six pathogenic and spoilage bacteria, commonly found in meat and meat products; assay: MIC in artificial culture media (1 log reduction); type: cell-based
Description: The concentration ot each active compound added to the meat samples was based on results obtained in a previous experiment. These concentrations represent the minimum inhibitory concentrations (MIC) of the active compounds required to be present in artificial culture media in order to reduce by 1 log the number of bacteria in culture. Six pathogenic and spoilage bacteria, commonly found in meat and meat products, were tested. […] The concentration used for carnosine (1.0%) was selected from the literature (Sebranek, 1999). The concentrations of BHA (0.01%), BHT (0.01%), EDTA (100 ppm), and tetrasodium pyrophosphate (0.1%) corresponded to the concentrations recommended by the Canadian Food Inspection Agency (CFIA).
This value was detennined by testing six pathogenic and spoilage bacteria, commonly found in meat and meat products.

[8] = ground beef, air, 4° C., lower concentration: tannic acid 0.38%, nisin 625 UI/g, EDTA 100 ppm, carvacrol […], tetrasodium pyrophosphate 0.1%, trans-cinnamaldehyde […], thymol 0.1%, thyme 0.2%, BHT 0.01%, BHA 0.01%, rosemary 0.5%, carnosine 1.0%, ascorbic acid 0.5%
[9] = vs control, ground beef, air, 4° C., tannic acid 0.38%, nisin 625 UI/g, EDTA 100 ppm, carvacrol […], tetrasodium pyrophosphate 0.1%, trans-cinnamaldehyde […], thymol 0.1%, thyme 0.2%, BHT 0.01%, BHA 0.01%, rosemary 0.5%, carnosine 1.0%, ascorbic acid 0.5%
[10] = ground beef, air, 4° C., lower concentration: thymol 0.1%, tannic acid 0.38%, rosemary 0.5%, BHT 0.01%, trans-cinnamaldehyde […], carvacrol […], thyme 0.2%, BHA 0.01%, nisin 625 UI/g, EDTA 100 ppm, tetrasodium pyrophosphate 0.1%, carnosine 1.0%, ascorbic acid 0.5%
[11] = vs control, negative = protective effect, ground beef, air, 4° C., thymol 0.1%, tannic acid 0.38%, rosemary 0.5%, BHT 0.01%, trans-cinnamaldehyde […], carvacrol […], thyme 0.2%, BHA 0.01%, nisin 625 UI/g, EDTA 100 ppm, tetrasodium pyrophosphate 0.1%, carnosine 1.0%, ascorbic acid 0.5%

| Compound | D10(kGy) (S. typhi [3]; [8]) | Increase in Sensitivity (S. typhi [3]; [9]) [%] | D10(kGy) (E. coli [4]; [10]) | Increase in Sensitivity (E. coli [4]; [11]) [%] | D10 (%): minimal concentration of active compound required to reduce E. coli population by 1 log in ground beef (E. coli [5]) | D10 (%): minimal concentration of active compound required to reduce S. typhi population by 1 log in ground beef (S. typhi [6]) | other results |
| --- | --- | --- | --- | --- | --- | --- | --- |
| O=P([O-])([O-])OP(=O)([O-])[O-].[Na+].[Na+].[Na+].[Na+] [Tetrasodium pyrophosphate, tetrasodium pyrophosphate] |  |  |  |  |  |  | D10(kGy) (S. typhi [1]; chicken breast, 4° C., trans-cinnamaldehyde 0.030%, tetrasodium pyrophosphate 0.003%, carvacrol 0.038%, thymol […]): 0.520 ± 0.030^b kGy; factor by which the effect was reduced in the chicken breast (S. typhi [1]; concentration of 1/30 of the MIC value in ground beef, compared with ground beef at MIC): 1.5; irradiation dose necessary to completely eliminate S. typhi from the chicken breast (S. typhi [1]; trans-cinnamaldehyde 0.030%, tetrasodium pyrophosphate 0.003%, carvacrol 0.038%, thymol […]): 2.6 kGy; Increase in Sensitivity (S. typhi [1]; vs control, chicken breast, trans-cinnamaldehyde 0.030%, tetrasodium pyrophosphate 0.003%, carvacrol 0.038%, thymol […]): 19.1%; D10(kGy) (E. coli [2]; chicken breast, 4° C.): 0.141 ± 0.012^bc kGy; irradiation dose necessary to completely eliminate E. coli from the chicken breast (E. coli [2]): 0.75 kGy; Increase in Sensitivity (E. coli [2]; vs control, chicken breast): 2.7% |
| COc1ccc(O)c(C(C)(C)C)c1 [BHA, butylated hydroxyanisole] | 0.407 ± 0.0123^h kGy | 22.6 | 0.117 ± 0.0026^ef kGy | 7.1 |  |  |  |
| O=C1O[C@H]([C@@H](O)CO)C(O)=C1O [Ascorbic acid] |  |  |  |  | 2.71 ± 0.26^b % | 1.83 ± 0.06^ab % | Mean values of MIC (concentration required in artificial culture media to reduce by 1 log the number of bacteria) [7]: 0.5% |
| O=C(O)CN(CCN(CC(=O)O)CC(=O)O)CC(=O)O [EDTA] |  |  |  |  |  |  | D10(kGy) (S. typhi [3]): 0.419 ± 0.0198^hi kGy; Increase in Sensitivity (S. typhi [3]): 20.3%; D10(kGy) (E. coli [4]): 0.127 ± 0.0033^gh kGy; Increase in Sensitivity (E. coli [4]): −0.8% |
| nisin | 0.420 ± 0.0040^hi kGy | 20.2 | 0.120 ± 0.0089^efg kGy | 4.8 |  |  |  |
| O=C(OC[C@H]1O[C@@H](OC(=O)c2cc(O)c(O)c(OC(=O)c3cc(O)c(O)c(O)c3)c2)[C@H](OC(=O)c2cc(O)c(O)c(OC(=O)c3cc(O)c(O)c(O)c3)c2)[C@@H](OC(=O)c2cc(O)c(O)c(OC(=O)c3cc(O)c(O)c(O)c3)c2)[C@@H]1OC(=O)c1cc(O)c(O)c(OC(=O)c2cc(O)c(O)c(O)c2)c1)c1cc(O)c(O)c(OC(=O)c2cc(O)c(O)c(O)c2)c1 [Tannic acid, tannic acid] |  |  |  |  | 11.15 ± 2.04^c % | 21.18 ± 2.07^d % |  |
